Data taken from US8063093B2, “Potassium channel blockers and uses thereof” (priority 2005, dated 2011).
Like-named read-outs stand apart in the source and are kept apart here.

How the values were obtained:
Kv1.3 = Kv1.3 (Homo sapiens, UniProt P22001); conditions: cited from earlier work
[1] = tested on: peripheral blood mononuclear cells; experiment: [3H]-thymidine incorporation (proliferation), anti-CD3 stimulated; format: cell-based; conditions: Homo sapiens, PBMC; Table 9; 5 ng/ml anti-CD3 Ab for 48 h
From the text: [^3H]-thymidine incorporation is a widely used test to assay the proliferative activity of human and rodent lymphocytes. As cells divide [^3H]-thymidine will be incorporated into the newly synthesised DNA of the resulting daughter cells. The faster cells grow the more radioactive [^3H]-thymidine will be incorporated. Any compound that inhibits lymphocytes proliferation will reduce the uptake of radioactivity by the cells treated with it compared to the untreated controls.
The selected compounds were tested to determine its ability to inhibit [^3H]-thymidine incorporation and the results are set out in table 6 below. Resting peripheral blood mononuclear cells from healthy volunteers were seeded at 2×10^5 cells per well in medium (RPMI 1640 supplemented 10% fetal calf serum, 2 mM glutamine, 1 mM sodium pyruvate, 1% nonessential amino acids, 100 units/ml penicillin, 100 μg/ml streptomycin and 50 μM β-mercaptoethanol) in flat-bottom 96 well plates (final volume 200 μl). Cells were pre-incubated with the compound of example 2 for 60 min, and were stimulated with 5 ng/ml anti-CD3 Ab for 48 h. [^3H]-Thymidine (1 μCi per well) was added for the last 6 h. Cells were harvested onto glass fibre filters and radioactivity measured in a scintillation counter. All experiments were done in triplicate. Results are normalised for maximum [^3H]-thymidine incorporation by control.

Kv1.3, sequence (P22001 whole entry): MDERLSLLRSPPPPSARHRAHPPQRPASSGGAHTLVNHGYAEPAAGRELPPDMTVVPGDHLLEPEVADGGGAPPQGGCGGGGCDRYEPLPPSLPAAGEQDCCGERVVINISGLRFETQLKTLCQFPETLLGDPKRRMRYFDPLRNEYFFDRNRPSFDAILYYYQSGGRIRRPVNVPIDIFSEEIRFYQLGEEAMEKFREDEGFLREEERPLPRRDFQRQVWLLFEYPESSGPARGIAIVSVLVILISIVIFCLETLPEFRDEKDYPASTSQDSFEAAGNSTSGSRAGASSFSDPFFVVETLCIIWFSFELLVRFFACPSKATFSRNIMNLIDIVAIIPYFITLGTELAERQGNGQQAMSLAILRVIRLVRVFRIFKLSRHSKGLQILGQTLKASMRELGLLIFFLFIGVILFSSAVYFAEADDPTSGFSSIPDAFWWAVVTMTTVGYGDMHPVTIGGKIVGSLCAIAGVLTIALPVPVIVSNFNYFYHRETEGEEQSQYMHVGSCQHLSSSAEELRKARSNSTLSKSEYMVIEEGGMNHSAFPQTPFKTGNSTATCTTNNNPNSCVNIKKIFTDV

COc1c(O)c(C(C)=O)c(OCCCCCOc2c(C(C)=O)c(O)c(OC)c3occc23)c2ccoc12 [Compound 85]
melting point: 139 to 141 °C

COc1c(O)c(C(C)=O)c(OCCCCCCOc2c(C(C)=O)c(O)c(OC)c3occc23)c2ccoc12 [Compound 86]
melting point: 147 to 151 °C

COc1c(C(C)=O)c(O)c(OCc2ccc(C(C)(C)C)cc2)c2occc12 [Compound 58]
melting point: 117 to 118 °C

COc1c(C(C)=O)c(O)c(OCc2ccc(C(F)(F)F)cc2)c2occc12 [Compound 56]
melting point: 90 to 91 °C

COc1c(O)c(C(C)=O)c(OCCCCOc2c(C(C)=O)c(O)c(OC)c3occc23)c2ccoc12 [Compound 84]
melting point: 209 to 211 °C

COc1c(O)c(C(C)=O)c(OCc2ccc(COc3c(C(C)=O)c(O)c(OC)c4occc34)cc2)c2ccoc12 [Compound 89]
melting point: 201 to 203 °C

COc1c(O)c(C(C)=O)c(OCc2ccccc2C)c2ccoc12 [Compound 13]
melting point: 101 to 103 °C

COc1c(O)c(C(C)=O)c(OCCCCCCCOc2c(C(C)=O)c(O)c(OC)c3occc23)c2ccoc12 [Compound 87]
melting point: 122 to 125 °C

COc1c(O)c(C(C)=O)c(OCc2ccc(C(F)(F)F)cc2)c2ccoc12 [Compound 24]
melting point: 104 to 106 °C

COc1c(C(C)=O)c(O)c(OCc2cccc(Cl)c2)c2occc12 [Compound 49]
melting point: 105 to 108 °C

COc1c(C(C)=O)c(O)c(OCCCCCc2ccccc2)c2occc12 [Compound 43]
melting point: 31 to 32 °C

COc1c(O)c(C(C)=O)c(OCc2cccc([N+](=O)[O-])c2)c2ccoc12 [Compound 20]
melting point: 160 to 162 °C

COc1c(O)c(C(C)=O)c(OCc2cccc(F)c2)c2ccoc12 [Compound 15]
melting point: 118 to 121 °C

COc1c2occc2cc2ccc(=O)oc12 [Compound 8-MOP, 8-Methoxypsoralen]
blocking activity on the Kv1.3 channel (Kv1.3; result in words): exhibit blocking activity

COc1c(C(C)=O)c(O)c(OCc2cccc(F)c2)c2occc12 [Compound 48]
melting point: 89 to 91 °C

COc1c(C(C)=O)c(O)c(OCc2ccc(-c3ccccc3)cc2)c2occc12 [Compound 59]
melting point: 126 to 127 °C

COc1c(C(C)=O)c(O)c(OCc2ccccc2-c2ccccc2)c2occc12 [Compound 47]
melting point: 115 to 117 °C

COc1c(O)c(C(C)=O)c(OCc2cccc3ccccc23)c2ccoc12 [Compound 4]
melting point: 96 to 98 °C

COc1c(O)c(C(C)=O)c(OCc2ccc(F)cc2)c2ccoc12 [Compound 21]
melting point: 100 to 102 °C

COc1c(C(C)=O)c(O)c(OCc2cccc([N+](=O)[O-])c2)c2occc12 [Compound 52]
melting point: 157 to 159 °C

COc1c(O)c(C(C)=O)c(OCc2ccc(OC(F)(F)F)cc2)c2ccoc12 [Compound 29]
melting point: 130 to 131 °C

COc1c(C(C)=O)c(O)c(OCCCCCOc2c(O)c(C(C)=O)c(OC)c3ccoc23)c2occc12 [Compound 91]
melting point: 132 to 134 °C

COc1c(O)c(C(C)=O)c(OCc2ccc(C(C)(C)C)cc2)c2ccoc12 [Compound 26]
melting point: 82 to 87 °C

COc1c(O)c(C(C)=O)c(OCc2ccccc2Cl)c2ccoc12 [Compound 12]
melting point: 84 to 86 °C

COc1c(O)c(C(C)=O)c(OCc2cccc(OC(F)(F)F)c2)c2ccoc12 [Compound 19]
melting point: 86 to 88 °C

COc1c(O)c(C(C)=O)c(OCCCCc2ccccc2)c2ccoc12 [Compound 9]
melting point: 121 to 122 °C

COc1c(O)c(C(C)=O)c(OCc2ccc(C(C)C)cc2)c2ccoc12 [Compound 25]
melting point: 73 to 75 °C

COc1c(O)c(C(C)=O)c(OCc2ccccc2F)c2ccoc12 [Compound 11]
melting point: 105 to 108 °C

COc1c(C(C)=O)c(O)c(OCCCCCCOc2c(O)c(C(C)=O)c(OC)c3ccoc23)c2occc12 [Compound 92]
melting point: 109 to 111 °C

COc1c(C(C)=O)c(O)c(OCc2ccc(COc3c(O)c(C(C)=O)c(OC)c4ccoc34)cc2)c2occc12 [Compound 95]
melting point: 184 to 186 °C

COc1c(O)c(C(C)=O)c(OCCCc2ccccc2)c2ccoc12 [Compound 8]
melting point: 94 to 95 °C

COc1c2occc2c(OCCCCc2ccccc2)c2c(=O)cc(C)oc12 [Compound 99]
melting point: 121 to 122 °C

COc1c(C(C)=O)c(O)c(OCc2ccc(OCc3ccccc3)cc2)c2occc12 [Compound 61]
melting point: 118 to 120 °C

COc1c(C(C)=O)c(O)c(OCc2ccc(Cl)cc2)c2occc12 [Compound 54]
melting point: 110 °C

COc1c(O)c(C(C)=O)c(OCc2ccc(C(=O)c3ccccc3)cc2)c2ccoc12 [Compound 31]
melting point: 132 to 134 °C

COc1c(C(C)=O)c(O)c(OCc2ccccc2)c2occc12 [Compound 39]
melting point: 79 to 80 °C

CC(=O)c1c(O)c(OCc2ccccc2)c2occc2c1OCc1ccccc1 [Compound 82]
melting point: 74 to 76 °C

COc1c(O)c(C(C)=O)c(OCc2ccc(C(=O)O)cc2)c2ccoc12 [Compound 32]
melting point: 183 to 186 °C

COc1c(O)c(C(C)=O)c(OCc2cccc(Cl)c2)c2ccoc12 [Compound 16]
melting point: 108 to 111 °C

COc1c(O)c(C(C)=O)c(OCc2ccccc2-c2ccccc2)c2ccoc12 [Compound 14]
melting point: 126 to 127 °C

COc1c(C(C)=O)c(O)c(OCc2ccc3ccccc3c2)c2occc12 [Compound 38]
melting point: 114 to 115 °C

COc1c(O)c(C(C)=O)c(OCc2ccc(-c3ccccc3)cc2)c2ccoc12 [Compound 27]
melting point: 163 to 167 °C

COc1c(C(C)=O)c(O)c(OCCCCc2ccccc2)c2occc12 [Compound 42]
melting point: 28 °C

COc1c(O)c(C(C)=O)c(OCc2cccc(COc3c(C(C)=O)c(O)c(OC)c4occc34)c2)c2ccoc12 [Compound 88]
melting point: 184 to 186 °C

COc1c(C(C)=O)c(O)c(OC)c2occc12 [Khellinone]
blocking activity on the Kv1.3 channel (Kv1.3): exhibit blocking activity

COc1c(C(C)=O)c(O)c(OCc2ccc(C(=O)O)cc2)c2occc12 [Compound 63]
melting point: 208 to 209 °C

COc1c(C(C)=O)c(O)c(OCc2ccc(C(C)C)cc2)c2occc12 [Compound 57]
melting point: 80 to 83 °C

COc1c(C(C)=O)c(O)c(OCc2cccc(COc3c(O)c(C(C)=O)c(OC)c4ccoc34)c2)c2occc12 [Compound 94]
melting point: 125 to 128 °C

COc1c(C(C)=O)c(O)c(OCCc2ccccc2)c2occc12 [Compound 40]
melting point: 102 to 104 °C

COc1c(C(C)=O)c(O)c(OCCCc2ccccc2)c2occc12 [Compound 41]
EC50 [1]: 1000 nM
melting point: 36 °C

COc1c(C(C)=O)c(O)c(OCc2ccc(Br)cc2)c2occc12 [Compound 55]
EC50 [1]: 2500 nM
melting point: 106 to 107 °C

COc1c(O)c(C(C)=O)c(OCc2cccc(C)c2)c2ccoc12 [Compound 17]
melting point: 99 to 101 °C

COc1c(C(C)=O)c(O)c(OCc2ccc(F)cc2)c2occc12 [Compound 53]
melting point: 99 to 100 °C

COc1c(O)c(C(C)=O)c(OCc2ccccc2)c2ccoc12 [Compound 6]
melting point: 93 to 94 °C

COc1c(C(C)=O)c(O)c(OCc2cccc(C)c2)c2occc12 [Compound 50]
melting point: 81 to 82 °C

COc1c(C(C)=O)c(O)c(OCc2ccccc2F)c2occc12 [Compound 44]
melting point: 89 to 92 °C

COc1c(O)c(C(C)=O)c(OCc2ccc(OCc3ccccc3)cc2)c2ccoc12 [Compound 30]
melting point: 155 to 157 °C

COc1c(C(C)=O)c(O)c(OCc2ccccc2C)c2occc12 [Compound 46]
melting point: 86 to 88 °C

COc1c(O)c(C(C)=O)c(OCc2ccc(Cl)cc2)c2ccoc12 [Compound 22]
EC50 [1]: 2500 nM
melting point: 106 to 108 °C

COc1c(C(C)=O)c(O)c(OCc2ccccc2Cl)c2occc12 [Compound 45]
melting point: 104 to 107 °C
